According to patent US12404283B2, “c-MYC mRNA translation modulators and uses thereof in the treatment of cancer” (Anima Biotech Inc., priority 2022, dated 2025):

These molecules were tested on c-Myc (assay: c-Myc immunofluorescence assay). Settings: A549 cells, 24 hours treatment, anti-c-Myc immunofluorescence.
Assay type: cell-based, human
Experimental: A549 human non-small cell lung carcinoma cells were treated for 24 hours with increasing compound concentration, cells were fixed and stained with a nuclei stain (DAPI) and anti-c-Myc fluorescent antibody. The c-Myc signal was quantified by image analysis, and data was exported and analyzed using TIBCO Spotfire® (TIBCO Corporation). Dose response curves were generated and fitted with logaristic regression to calculate potency (EC50 values). Potency values are presented in Table 2 for all compounds and are shown for selected compounds (FIG. 4).
A549 cells were grown in 384-wells plates (Perkin Elmer, Cat. 6057300) for 48 hours, treated with compounds and then fixed for 20 min in 4% paraformaldehyde. After that permeabilization was done using 0.1% Triton X-100 in PBS for 20 min. Primary anti-c-Myc antibody (Abcam, ab32072) staining was performed for 90 min at room temperature. Cells then were washed twice with PBS and incubated with secondary antibody (Abcam, ab150075) for 90 min at room temperature. Nuclei were stained with DAPI for 10 min and washed twice with PBS.
Cell images were taken with Operetta (Perkin Elmer, USA), a wide-field fluorescence microscope at 20× magnification. After acquisition, the images were transferred to Columbus software (Perkin-Elmer) for image analysis. In Columbus, cells were identified by their nucleus, using the “Find Nuceli” module and cytoplasm was detected based on the secondary antibody channel. Subsequently, the fluorescent signal was enumerated in the identified cell region. Then data was exported to a data analysis and visualization software, Tibco Spotfire, USA.

Row | Compound | Myc Efficacy (−LogEC50)
1 | CN1CCC(NC(=O)c2ccc3c(c2)sc2nc(-c4ccc(C5COCCN5)cc4F)cn23)CC1 (stereo not drawn) [Compound 517, 2-(2-fluoro-4-(morpholin-3-yl)phenyl)-N-(1-methylpiperidin-4-yl)benzo[d]imidazo[2,1-b]thiazole-7-carboxamide] | +++ (+++ ≥6)
2 | CN1CCC[C@H](NC(=O)c2ccc3c(c2)sc2nc(-c4ccc(C5CCCN5)cc4F)cn23)C1 (stereo partly drawn) [Compound 491S, 2-(2-fluoro-4-(pyrrolidin-2-yl)phenyl)-N—((S)-1-methylpiperidin-3-yl)benzo[d]imidazo[2,1-b]thiazole-7-carboxamide] | +++ (+++ ≥6)
3 | NC(=O)c1ccc2c(c1)sc1nc(-c3ccc(C4CCNC4)cc3F)cn12 (stereo not drawn) [Compound 511, 2-(2-fluoro-4-(pyrrolidin-3-yl)phenyl)benzo[d]imidazo[2,1-b]thiazole-7-carboxamide] | +++ (+++ ≥6)
4 | CCN(CC)CCCNC(=O)c1ccc2c(c1)sc1nc(-c3cccc(N4CCOCC4)c3)cn12 [compound 170, N-(3-(diethylamino)propyl)-2-(3-morpholinophenyl)benzo[d] imidazo[2,1-b]thiazole-7-carboxamide] | ++ (++ ≥5 and <6)
5 | CN1CCC[C@@H](NC(=O)c2ccc3c(c2)sc2nc(-c4ccc(C5CCCN5)cc4F)cn23)C1 (stereo partly drawn) [Compound 491R, 2-(2-fluoro-4-(pyrrolidin-2-yl)phenyl)-N—((R)-1-methylpiperidin-3-yl)benzo[d]imidazo[2,1-b]thiazole-7-carboxamide] | +++ (+++ ≥6)
6 | C#CCCC1(CCN2CC[C@@H](CNC(=O)c3ccc4c(c3)sc3nc(-c5ccc(C)cc5)cn34)C2)N=N1 [compound 325, (S)-N-((1-(2-(3-(but-3-yn-1-yl)-3H-diazirin-3-yl)ethyl)pyrrolidin-3-yl)methyl)-2-(p-tolyl)benzo[d]imidazo[2,1-b]thiazole-7-carboxamide] | ++ (++ ≥5 and <6)
7 | CNC(=O)c1ccc(-c2cn3c(n2)sc2cc(C(=O)N[C@@H](CO)c4ccccc4)ccc23)cc1 [compound 213, (R)-N-(2-hydroxy-1-phenylethyl)-2-(4-(methylcarbamoyl)phenyl) benzo[d]imidazo[2,1-b]thiazole-7-carboxamide] | + (+ >3 and <5)
8 | CN1CC[C@@H](NC(=O)c2ccc3c(c2)sc2nc(-c4ccc([C@@H]5CCCN5)cc4F)cn23)[C@@H](F)C1 [compound 526, N-((3S,4R)-3-fluoro-1-methylpiperidin-4-yl)-2-(2-fluoro-4-(pyrrolidin-2-yl)phenyl)benzo[d]imidazo[2,1-b]thiazole-7-carboxamide] | ++ (++ ≥5 and <6)
9 | CNC(=O)c1ccc(-c2cn3c(n2)sc2cc(C(=O)NCC4CCC(=O)N4C)ccc23)cc1 (stereo not drawn) [compound 254, N-((1-methyl-5-oxopyrrolidin-2-yl)methyl) 2-(4-(methylcarbamoyl)phenyl) benzo[d]imidazo[2,1-b]thiazole-7-carboxamide] | + (+ >3 and <5)
10 | NC(=O)c1ccc2c(c1)sc1nc(-c3ccc(C4CC(C(F)F)CN4)cc3F)cn12 (stereo not drawn) [compound 540, 2-(4-(4-(difluoromethyl)pyrrolidin-2-yl)-2-fluorophenyl)benzo[d]imidazo [2,1-b]thiazole-7-carboxamide] | +++ (+++ ≥6)
11 | CNC(=O)c1ccc(-c2cn3c(n2)sc2cc(C(=O)NC4CCNCC4)ccc23)c(F)c1 [compound 363, 2-(2-fluoro-4-(methylcarbamoyl)phenyl)-N-(piperidin-4-yl)benzo[d]imidazo[2,1-b]thiazole-7-carboxamide] | ++ (++ ≥5 and <6)
12 | CNC(=O)c1ccc(-c2cn3c(n2)sc2cc(C(=O)NC(C)C(=O)N(C)C)ccc23)cc1 (stereo not drawn) [compound 197, N-(1-(dimethylamino)-1-oxopropan-2-yl)-2-(4-(methylcarbamoyl)phenyl) benzo[d]imidazo[2,1-b]thiazole-7-carboxamide] | + (+ >3 and <5)
